Experimental findings from patent US4256753A, “4-(2-Pyridylamino)phenylacetic acid derivatives” (Dainippon Pharmaceutical Co., Ltd., priority 1978, dated 1981) are described below.

Read-outs that look alike come from different tables or passages of the source.

Data set [1] concerns Acetic acid-induced writhing. The data set is described as follows: Acetic acid-induced writhing in rats (ACWR method). The data set is classed as in vivo. The settings on record: Rattus norvegicus, po, read-out: Analgesic ED50, ACWR. How it is done:
(b) Acetic acid-induced writhing in rats (ACWR method)
The test was carried out according to the method described in Arzneim. Forsch., 25, 1505 (1975).

Data set [2] deals with Carrageenin-induced hind paw edema. The experiment in a line: Carrageenin-induced hind paw edema in rats (CAR method). The data set is classed as in vivo. Particulars: Rattus norvegicus, po, read-out: Anti-inflammatory ED50, CAR. How it is done: (a) Carrageenin-induced hind paw edema in rats (CAR method)
The test was carried out according to the method described in Proc. Soc. Exp. Biol. Med., 111, 544 (1962).
(The carrageenan paw model is a standard test of acute inflammation.)

Data set [3] deals with Acetic acid-induced vascular permeability. The experiment in a line: Acetic acid-induced vascular permeability in mice (CAP method). The settings on record: Mus musculus, po, read-out: Anti-inflammatory ED50, CAP. The data set is classed as in vivo. How it is done:
(b) Acetic acid-induced vascular permeability in mice (CAP method)
The test was carried out according to the method described in Brit. J. Pharm. Chemother., 22, 246 (1964).

Data set [4] has as its system Phenylquinone-induced writhing. The experiment in a line: Phenylquinone-induced writhing in mice (PQW method). The data set is classed as in vivo. The settings on record: Mus musculus, po, read-out: Analgesic ED50, PQW. How it is done:
(a) Phenylquinone-induced writhing in mice (PQW method)
The test was carried out according to the method described in Proc. Soc. Exp. Biol. Med., 95, 729 (1957).
A general note: In writhing tests, fewer writhes than in controls are read as antinociception.

A short description of the next data set: Anti-allergic activity. Particulars: result in words, no test described.
Data set [5] has as its system adjuvant-induced arthritis. The data set is described as follows: Prophylactic effect on adjuvant-induced arthritis in rats. The settings on record: for Arthritic incidence: 80 mg/kg/day p.o., days 0-20, vehicle control 100. The data set is classed as in vivo, female rats of JCL:SD strain.
Data set [6] is described as follows: Gastrointestinal ulcerogenicity in fasted rats. Particulars: rat, in vivo, po. As to the method: The test was carried out using fasted rats according to the method described in Arzneim.
A further data set is described as follows: in vivo. Particulars: mouse, po.
Setting [7] is: mice, acetic acid-induced vascular permeability.

For the compound `CC(C(=O)O)c1ccc(Nc2ccccn2)c(Cl)c1` (centres unmarked) [B, 2-[3-Chloro-4-(2'-pyridylamino)phenyl]propionic acid], the 50% effective dose (ED50) (as a rule, the midpoint of the dose-response relation) came out at 1.8 mg/kg in data set [1], 13.1 mg/kg in data set [2], 3.18 mg/kg in data set [3] (setting [7]) and 8.62 mg/kg in data set [4].

Turning to `CC(C)Cc1ccc(C(C)C(=O)O)cc1` (centres unmarked) [Compound 1, 2-(4-isobutylphenyl)propionic acid, reference compound], the anti-allergic activity result in the data set “Anti-allergic activity” is on record as “does not show such an activity”. Besides, the Arthritic incidence in data set [5] is given as 85.7%. The ED50 in data set [1] stood at 9.43 mg/kg; in data set [3] it was 7.11 mg/kg; in data set [4] it was 50 mg/kg. For the same compound, the TD50 in data set [6] stood at 125 mg/kg.

For `CC(C(=O)O)c1ccc(N(C)c2ccccn2)cc1` (centres unmarked) [Compound 2, 2-[4-[N-Methyl-N-(2'-pyridyl)amino]phenyl]propionic acid], the ED50 in data set [1] is 20 mg/kg; in data set [2], 40 mg/kg; in data set [3] (setting [7]), over 20 mg/kg; in data set [4], over 100 mg/kg.

Regarding `CC(C(=O)O)c1ccc(Oc2ccccn2)cc1` (centres unmarked) [Compound 3, 2-[4-(2'-Pyridyloxy)phenyl]propionic acid], the ED50 in data set [1] is 5.51 mg/kg; in data set [2], 20 mg/kg; in data set [3] (setting [7]) it was 6.74 mg/kg; in data set [4], 80 mg/kg.

For `CC(C(=O)O)c1ccc(Nc2ccccn2)cc1` (centres unmarked) [Compound A, 2-[4-(2'-Pyridylamino)phenyl]propionic acid], the anti-allergic activity result in the data set “Anti-allergic activity” was “shows an anti-allergic activity”. Further, the LD50 (in general, the dose expected to kill half of the subjects tested) at 168 h in “in vivo” was determined as 1910 mg/kg. In data set [5], the Arthritic incidence came to 0%. Besides, the “Arthritic index mean ± S.E., 22nd day” value in data set [5] (rat, in vivo) is 1.3 ± 0.8. Also, the “Arthritic index mean ± S.E., 28th day” value in data set [5] (rat, in vivo) worked out at 1.3 ± 0.6. The 50% effective dose (ED50) in data set [1] stood at 1.36 mg/kg; in data set [2], 10 mg/kg; in data set [3] (setting [7]), 0.88 mg/kg; in data set [4] it was 7.33 mg/kg. The compound also came in with a TD50 in data set [6] of over 640 mg/kg. Further, the selectivity ratio in data set [6] (rats, p.o., UD50 divided by ED50 of CAR method, read-out: Safety index, ratio of UD50/ED50 (CAR method)) was over 64.
